Results published in the NIST ThermoML archive (doi:10.1016/j.jct.2014.11.001).
Several values for one entry are separate records, joined by “and”; a condition that tells them apart may be missing. Equal entries are not always repeated.

Assays:
[1] = for Normal melting temperature: DTA
[2] = Molar enthalpy of transition or fusion; details: Crystal; DSC

NC(=O)c1cccnc1 [3-pyridinecarboxamide]
[1]
Details	vapor or sublimation pressure
341.25 K, Crystal, Calculated from knudsen effusion weight loss	9.3e-05 kPa
343.28 K, Crystal, Calculated from knudsen effusion weight loss	0.000117 kPa and 0.000116 kPa
345.05 K, Crystal, Calculated from knudsen effusion weight loss	0.000142 kPa and 0.000141 kPa and 0.000144 kPa
347.23 K, Crystal, Calculated from knudsen effusion weight loss	0.000182 kPa and 0.000183 kPa and 0.000184 kPa
349.26 K, Crystal, Calculated from knudsen effusion weight loss	0.000228 kPa and 0.000226 kPa and 0.00023 kPa
351.07 K, Crystal, Calculated from knudsen effusion weight loss	0.000277 kPa and 0.000275 kPa and 0.00028 kPa
353.24 K, Crystal, Calculated from knudsen effusion weight loss	0.000356 kPa and 0.000352 kPa
355.27 K, Crystal, Calculated from knudsen effusion weight loss	0.000434 kPa and 0.00043 kPa and 0.000436 kPa
356.6 K, Crystal, Closed cell (Static) method	0.00051 kPa
357.06 K, Crystal, Calculated from knudsen effusion weight loss	0.000528 kPa and 0.000517 kPa and 0.000525 kPa
358.66 K, Crystal, Closed cell (Static) method	0.00063 kPa
359.25 K, Crystal, Calculated from knudsen effusion weight loss	0.000666 kPa and 0.000648 kPa and 0.000656 kPa
360.58 K, Crystal, Closed cell (Static) method	0.00078 kPa
361.29 K, Crystal, Calculated from knudsen effusion weight loss	0.000812 kPa and 0.000792 kPa and 0.000807 kPa
363.06 K, Crystal, Calculated from knudsen effusion weight loss	0.000975 kPa and 0.000964 kPa and 0.00097 kPa
364.49 K, Crystal, Closed cell (Static) method	0.00116 kPa
366.57 K, Crystal, Closed cell (Static) method	0.00143 kPa
368.47 K, Crystal, Closed cell (Static) method	0.00172 kPa
370.51 K, Crystal, Closed cell (Static) method	0.00211 kPa
372.43 K, Crystal, Closed cell (Static) method	0.00255 kPa
374.46 K, Crystal, Closed cell (Static) method	0.00311 kPa
376.31 K, Crystal, Closed cell (Static) method	0.00371 kPa
378.39 K, Crystal, Closed cell (Static) method	0.00451 kPa
380.33 K, Crystal, Closed cell (Static) method	0.00536 kPa
382.34 K, Crystal, Closed cell (Static) method	0.00647 kPa
384.22 K, Crystal, Closed cell (Static) method	0.00767 kPa
386.28 K, Crystal, Closed cell (Static) method	0.00925 kPa
388.17 K, Crystal, Closed cell (Static) method	0.01094 kPa
390.23 K, Crystal, Closed cell (Static) method	0.01311 kPa
392.23 K, Crystal, Closed cell (Static) method	0.01553 kPa
394.43 K, Crystal, Closed cell (Static) method	0.01868 kPa
396.07 K, Metastable liquid, Closed cell (Static) method	0.02388 kPa
396.08 K, Crystal, Closed cell (Static) method	0.02158 kPa
398.04 K, Metastable liquid, Closed cell (Static) method	0.02729 kPa
398.1 K, Crystal, Closed cell (Static) method	0.02563 kPa
400.07 K, Metastable liquid, Closed cell (Static) method	0.03101 kPa
402.04 K, Metastable liquid, Closed cell (Static) method	0.0351 kPa
404.02 K, Closed cell (Static) method, Liquid	0.03991 kPa
405.98 K, Closed cell (Static) method, Liquid	0.04492 kPa
407.93 K, Closed cell (Static) method, Liquid	0.05046 kPa
409.92 K, Closed cell (Static) method, Liquid	0.05717 kPa
411.89 K, Closed cell (Static) method, Liquid	0.06456 kPa
413.87 K, Closed cell (Static) method, Liquid	0.07284 kPa
415.82 K, Closed cell (Static) method, Liquid	0.08179 kPa
417.81 K, Closed cell (Static) method, Liquid	0.09162 kPa
419.77 K, Closed cell (Static) method, Liquid	0.103 kPa
421.72 K, Closed cell (Static) method, Liquid	0.1152 kPa
423.69 K, Closed cell (Static) method, Liquid	0.1283 kPa
425.65 K, Closed cell (Static) method, Liquid	0.1428 kPa
427.62 K, Closed cell (Static) method, Liquid	0.1598 kPa
429.58 K, Closed cell (Static) method, Liquid	0.1773 kPa
431.56 K, Closed cell (Static) method, Liquid	0.1973 kPa
433.69 K, Closed cell (Static) method, Liquid	0.2206 kPa

Details	Normal melting temperature [°C]
[1], Crystal	128.1

Details	Molar enthalpy of transition or fusion [kcal/mol]
[2]	5.66

CN(C)C(=O)c1cccnc1 [N,N-dimethylnicotinamide]
[1]
Details	vapor or sublimation pressure [kPa]
307.16 K, Metastable liquid, Closed cell (Static) method	0.00057
308.18 K, Crystal, Closed cell (Static) method	0.00049
309.14 K, Metastable liquid, Closed cell (Static) method	0.00069
309.15 K, Crystal, Closed cell (Static) method	0.00056
310.13 K, Crystal, Closed cell (Static) method	0.00062
311.15 K, Crystal, Closed cell (Static) method	0.0007
311.16 K, Metastable liquid, Closed cell (Static) method	0.00082
312.13 K, Crystal, Closed cell (Static) method	0.00078
313.1 K, Crystal, Closed cell (Static) method	0.00088
313.1 K, Metastable liquid, Closed cell (Static) method	0.00099
314.09 K, Crystal, Closed cell (Static) method	0.00098
315.07 K, Metastable liquid, Closed cell (Static) method	0.00118
315.1 K, Crystal, Closed cell (Static) method	0.0011
317.09 K, Metastable liquid, Closed cell (Static) method	0.00142
319.04 K, Closed cell (Static) method, Liquid	0.00169
321.01 K, Closed cell (Static) method, Liquid	0.002
322.97 K, Closed cell (Static) method, Liquid	0.00238
324.98 K, Closed cell (Static) method, Liquid	0.0028
326.94 K, Closed cell (Static) method, Liquid	0.00334
328.93 K, Closed cell (Static) method, Liquid	0.00388
330.88 K, Closed cell (Static) method, Liquid	0.00459
332.9 K, Closed cell (Static) method, Liquid	0.00538
334.96 K, Closed cell (Static) method, Liquid	0.00637
336.93 K, Closed cell (Static) method, Liquid	0.00748
338.92 K, Closed cell (Static) method, Liquid	0.00861
340.89 K, Closed cell (Static) method, Liquid	0.01
342.87 K, Closed cell (Static) method, Liquid	0.01163
344.83 K, Closed cell (Static) method, Liquid	0.0135
346.82 K, Closed cell (Static) method, Liquid	0.01555
348.79 K, Closed cell (Static) method, Liquid	0.0179
350.77 K, Closed cell (Static) method, Liquid	0.02072
352.74 K, Closed cell (Static) method, Liquid	0.02375
354.72 K, Closed cell (Static) method, Liquid	0.02718
356.68 K, Closed cell (Static) method, Liquid	0.03111
358.66 K, Closed cell (Static) method, Liquid	0.03534
360.66 K, Closed cell (Static) method, Liquid	0.04054
362.63 K, Closed cell (Static) method, Liquid	0.04582
364.61 K, Closed cell (Static) method, Liquid	0.05247
366.58 K, Closed cell (Static) method, Liquid	0.05911
368.55 K, Closed cell (Static) method, Liquid	0.06722
370.52 K, Closed cell (Static) method, Liquid	0.07569

Details	Normal melting temperature [°C]
[1], Crystal	44.2

Details	Molar enthalpy of transition or fusion [kcal/mol]
[2]	4.64

CNC(=O)c1cccnc1 [N-methylnicotinamide]
[1]
Details	vapor or sublimation pressure
329.17 K, Crystal, Calculated from knudsen effusion weight loss	0.000104 kPa and 0.000105 kPa
331.27 K, Crystal, Calculated from knudsen effusion weight loss	0.000132 kPa and 0.000134 kPa and 0.000131 kPa
333.15 K, Crystal, Calculated from knudsen effusion weight loss	0.000162 kPa and 0.00016 kPa and 0.000164 kPa
335.17 K, Crystal, Calculated from knudsen effusion weight loss	0.000211 kPa and 0.000209 kPa and 0.000206 kPa
337.27 K, Crystal, Calculated from knudsen effusion weight loss	0.000261 kPa and 0.000259 kPa
339.15 K, Crystal, Calculated from knudsen effusion weight loss	0.000328 kPa and 0.00032 kPa
341.16 K, Crystal, Calculated from knudsen effusion weight loss	0.000414 kPa and 0.000404 kPa
343.27 K, Crystal, Calculated from knudsen effusion weight loss	0.00051 kPa and 0.000505 kPa and 0.000513 kPa
345.13 K, Crystal, Calculated from knudsen effusion weight loss	0.000619 kPa and 0.000613 kPa and 0.000627 kPa
347.16 K, Crystal, Calculated from knudsen effusion weight loss	0.000784 kPa and 0.000776 kPa and 0.000771 kPa
347.78 K, Crystal, Closed cell (Static) method	0.00085 kPa
349.27 K, Crystal, Calculated from knudsen effusion weight loss	0.000971 kPa and 0.000964 kPa and 0.000957 kPa
349.78 K, Crystal, Closed cell (Static) method	0.00105 kPa
351.69 K, Crystal, Closed cell (Static) method	0.00127 kPa
353.72 K, Crystal, Closed cell (Static) method	0.00157 kPa
355.6 K, Crystal, Closed cell (Static) method	0.00191 kPa
357.66 K, Crystal, Closed cell (Static) method	0.00232 kPa
359.51 K, Crystal, Closed cell (Static) method	0.0028 kPa
361.62 K, Crystal, Closed cell (Static) method	0.00347 kPa
363.5 K, Crystal, Closed cell (Static) method	0.00416 kPa
365.47 K, Crystal, Closed cell (Static) method	0.00502 kPa
367.44 K, Crystal, Closed cell (Static) method	0.00604 kPa
369.43 K, Crystal, Closed cell (Static) method	0.00721 kPa
371.36 K, Crystal, Closed cell (Static) method	0.00857 kPa
373.27 K, Crystal, Closed cell (Static) method	0.01023 kPa
375.33 K, Metastable liquid, Closed cell (Static) method	0.01316 kPa
375.36 K, Crystal, Closed cell (Static) method	0.01234 kPa
377.25 K, Metastable liquid, Closed cell (Static) method	0.01508 kPa
377.39 K, Crystal, Closed cell (Static) method	0.01496 kPa
379.31 K, Metastable liquid, Closed cell (Static) method	0.01731 kPa
381.26 K, Closed cell (Static) method, Liquid	0.01991 kPa
383.29 K, Closed cell (Static) method, Liquid	0.0228 kPa
385.21 K, Closed cell (Static) method, Liquid	0.02592 kPa
387.24 K, Closed cell (Static) method, Liquid	0.02975 kPa
389.16 K, Closed cell (Static) method, Liquid	0.03359 kPa
391.17 K, Closed cell (Static) method, Liquid	0.03824 kPa
393.09 K, Closed cell (Static) method, Liquid	0.04305 kPa
395.12 K, Closed cell (Static) method, Liquid	0.04915 kPa
397.12 K, Closed cell (Static) method, Liquid	0.05526 kPa
399.02 K, Closed cell (Static) method, Liquid	0.06212 kPa
401.07 K, Closed cell (Static) method, Liquid	0.07023 kPa
403.01 K, Closed cell (Static) method, Liquid	0.07943 kPa
404.99 K, Closed cell (Static) method, Liquid	0.08886 kPa
406.95 K, Closed cell (Static) method, Liquid	0.09977 kPa
408.92 K, Closed cell (Static) method, Liquid	0.1117 kPa
410.86 K, Closed cell (Static) method, Liquid	0.1253 kPa
412.85 K, Closed cell (Static) method, Liquid	0.1398 kPa
414.81 K, Closed cell (Static) method, Liquid	0.1564 kPa
416.77 K, Closed cell (Static) method, Liquid	0.1735 kPa
418.72 K, Closed cell (Static) method, Liquid	0.194 kPa
420.68 K, Closed cell (Static) method, Liquid	0.2147 kPa
422.64 K, Closed cell (Static) method, Liquid	0.2384 kPa
424.61 K, Closed cell (Static) method, Liquid	0.2644 kPa
426.55 K, Closed cell (Static) method, Liquid	0.2952 kPa

Details	Normal melting temperature [°C]
[1], Crystal	106.0

Details	Molar enthalpy of transition or fusion [kcal/mol]
[2]	5.26
